What was measured:
Raji B lymphoma cells = assay: Orthotopic murine CNS lymphoma model, Raji (bioluminescence tumor growth, survival); assay type: in vivo, athymic mice; conditions: for median survival: Raji model; for in vivo tumor growth (luminescence signal) vs control: P<0.05, n=8
Method: (§1) Animal and housing: Female athymic mice (8-10 weeks old and weighing 20-25 g at the beginning of the study) were purchased from Harlan laboratories. They were housed in a temperature-controlled sterilized room (23±2° C.) with a 12-h light/dark cycle and free access to food and water throughout the study. Animal use was approved by Mayo Foundation Institutional Animal Use and Care Committee and was in accordance with NIH Guide for the Care and Use of Laboratory Animals.
(§2) Orthotopic murine CNS lymphoma models: Two murine CNS lymphoma models were created by intracerebral injection of 2.5×10^4 luciferase-transfected Raji or 1×10^5 luciferase-transfected OCI-LY10 B lymphoma cells in athymic mice under anesthesia using a stereotactic platform. Eight-week-old athymic mice underwent minimum 7-day acclimation/quarantine prior to surgery. Surgery was performed in a laminar flow hood under sterile conditions. Tylenol 300 mg/kg PO was given for analgesia 24 hours before the surgery continuing 48 hours postoperatively. Anesthesia was achieved by inhalation of 1-2% isoflurane. After the mouse became well anesthetized, it was placed in the Kopf stereotactic instrument. A small amount of BNP antibiotic cream (a mixture of Bacitracin, Neomycin and Polymyxin) was smeared on its eyes to prevent infection and corneal damage during surgery. A strip of soft fabric was placed over the mouse's body and tail to prevent excessive heat loss during surgery. The scalp area was cleaned with a 2% solution of Betadine and dried with cotton tipped applicator. A midline sagittal incision was made in the scalp. A small burr hole was drilled in the left skull with a surgical drill (Kopf) or a Dremel drill according to the coordinates (AP: 0.5 mm, LM: 2.5 mm) as determined by reference to the mouse brain atlas by Franklin and Paxinos. Paxinos, 2001. The dura mater was surgically exposed, and a 10 μl-Hamilton syringe with a 26S-gauge beveled needle was lowered into the left cerebral hemisphere up to the depth of 3 mm and 5 μl of tumor cells was slowly infused (0.5 μl/min). The needle was left in place for 5 minutes to prevent reflux and then was slowly removed. The skin was closed with wound clips. The mice recovered from anesthesia and surgery in a warm environment and were not returned to their cages until motor activity returned. Cages were placed on top of a heating pad to minimize the loss of body heat during the recovery. The mice were monitored postoperatively at least twice a day for 5 days or until recovery was complete.
(§3) Bioluminescence imaging of mouse: After intracerebral injection of lymphoma cells, all the mice were subjected to bioluminesence imaging (“BLI”) twice a week starting at day-4 post-intracerebral injection to monitor the real-time in vivo tumor growth. BLI was conducted using a Xenogen Lumina optical imaging system (Caliper Life Sciences, Hopkinton, Mass.). Mice were anesthetized with isofluorane before intraperitoneal injections of luciferin at a dose of 150 mg/kg, providing a saturating substrate concentration for luciferase enzyme. Peak luminescent signals were recorded 10 minutes after luciferin injection. Regions of interest encompassing the intracranial area of signal were defined using Living Image software (Xenogen), and the total photons/s/steradian/cm^2 was recorded.
(§4) In vivo preclinical evaluation of 4-amino-2-(2,6-dioxo-piperidine-3-yl)-isoindoline-1,3-dione in murine CNS lymphoma models: Mice were imaged 4 days after intracerebral injection and were distributed among different treatment groups with equivalent average BLI signal. Real time tumor growth was monitored by BLI. Tumor growth and survival data were analyzed for statistical difference between the groups. Mice were assigned to four experimental groups and one vehicle control group in Raji model. Mice in experimental groups received 4-amino-2-(2,6-dioxo-piperidine-3-yl)-isoindoline-1,3-dione 0.3 mg/kg, 3 mg/kg, 10 mg/kg, or 30 mg/kg by oral gavage daily for 28 days.

[1] = tested on: OCI-LY10 B lymphoma cells; assay: Orthotopic murine CNS lymphoma model, OCI-LY10 (bioluminescence tumor growth, survival); assay type: in vivo, athymic mice; conditions: for median survival: OCI-LY10 model; for in vivo tumor growth (luminescence signal) vs control: P<0.05, n=8
Method: as §1, §2, §3
as §4, with “days. […]” for “days.”

human monocyte U937 = assay: Polarization of IL4-treated human monocyte U937 (immunofluorescence); assay type: cell-based; conditions: U937, IL-4 20 ng/ml 48 hours then 10 ug/ml 48 hours
Method: Raji lymphoma cells (ATCC), U937 human monocyte cells (ATCC) and YTS NK cells (a gift from Dr. Pamela A. Becker) were cultured at 37° C. in a humidified incubator under 5% CO2 and 95% air in RPMI-1640 supplemented with 20% FCS and 1% penicillin-streptomycin, and 1% nonessential amino acids.
(§5) Treatments: In experiments in which IL-4 was used to induce M2 polarization of macrophages, cells were treated with IL-4 (20 ng/ml) for 48 hours followed by treatment with 4-amino-2-(2,6-dioxo-piperidine-3-yl)-isoindoline-1,3-dione (10 ug/ml) or DMSO control for 48 hours. In triple cell culture experiments with lymphoma cells, macrophages, and NK cells, the treatment was with either DMSO or 4-amino-2-(2,6-dioxo-piperidine-3-yl)-isoindoline-1,3-dione (10 ug/ml) for 48 hours.
Immunofluorescence for analysis of macrophage polarization in cell culture experiments: Live cells were fixed in 10% formalin for 30 minutes at room temperature followed by permeabilization with PBS-0.2% Triton X-100 for 2 min. […]

[2] = tested on: primary murine microglia cells; assay: Polarization of IL4-treated primary murine microglia cells (immunofluorescence); assay type: cell-based; conditions: IL-4 20 ng/ml 48 hours then 10 ug/ml 48 hours
Method: as §5
Immunofluorescence for analysis of macrophage polarization in cell culture experiments: Live cells were fixed in 10% formalin for 30 minutes at room temperature followed by permeabilization with PBS-0.2% Triton X-100 for 2 min. After blocking with PBS-5% goat serum-0.02% Triton X-100 for 30 minutes at 37° C., the cells were incubated overnight at 4° C. with rat monoclonal F4/80 antibody (for primary microglia cells, 1:200 Abcam), rat monoclonal CD11b (for U937, 1:200 Biolegend), rabbit polyclonal Ym1 antibody (for primary microglia cells and primary peritoneal macrophages, 1:200, Stemcell Technologies, Vancouver, Canada), rabbit polyclonal FXIII A antibody (for U937, 1:200, Abcam), mouse monoclonal p-STAT1 antibody (1:200, Abcam), rabbit polyclonal p-STAT6 antibody (1:200, Abcam) or rabbit iNOS antibody (1:200, Calbiochem). […]

[3] = 3 mg/kg oral gavage daily for 28 days
[4] = 10 mg/kg oral gavage daily for 28 days
[5] = 30 mg/kg oral gavage daily for 28 days

Nc1cccc2c1C(=O)N(C1CCC(=O)NC1=O)C2=O (stereo not shown) [Pomalidomide, 4-amino-2-(2,6-dioxo-piperidine-3-yl)-isoindoline-1,3-dione]
body weight vs control group (Raji B lymphoma cells; 3, 10 and 30 mg/kg treatment groups, murine CNS lymphoma model not specified): able to maintain their body weight better than those in control group
median survival (Raji B lymphoma cells; 0.3 mg/kg oral gavage daily for 28 days): 24 days
median survival (Raji B lymphoma cells; [3]): 28 days
median survival (Raji B lymphoma cells; [4]): 27 days
median survival (Raji B lymphoma cells; [5]): 31 days
in vivo tumor growth (luminescence signal) vs control (Raji B lymphoma cells; Raji model, 3, 10 and 30 mg/kg groups): significantly slower
in vivo tumor growth (luminescence signal) vs control (Raji B lymphoma cells; Raji model, 3, 10 and 30 mg/kg groups, listed as 4-amino-2-(2,6-dioxo-piperidine-3-yl)-isoindoline-1,3-dione): reduction of tumor growth
survival, Kaplan-Meier analysis vs control (Raji B lymphoma cells; Raji model, 3, 10 and 30 mg/kg groups, p<0.05, n=8): prolongation of survival
median survival [1, 3]: 32 days
median survival [1, 4]: 37 days
median survival [1, 5]: 40 days
in vivo tumor growth (luminescence signal) vs control ([1]; OCI-LY10 model, 3, 10 and 30 mg/kg groups): significantly slower
in vivo tumor growth (luminescence signal) vs control ([1]; OCI-LY10 model, 3, 10 and 30 mg/kg groups, listed as 4-amino-2-(2,6-dioxo-piperidine-3-yl)-isoindoline-1,3-dione): reduction of tumor growth
survival, Kaplan-Meier analysis vs control ([1]; OCI-LY10 model, 3, 10 and 30 mg/kg groups, p<0.05, n=8): prolongation of survival
polarization status (FXIII A, pSTAT6 vs iNOS, pSTAT1 expression) (human monocyte U937): from M2 to M1
polarization status (FXIII A, pSTAT6 vs iNOS, pSTAT1 expression) [2]: from M2 to M1

Reference: patent publication US9839632B2, “Methods and compositions using 4-amino-2-(2,6-dioxo-piperidine-3-yl)-isoindoline-1,3-dione for treatment and management of central nervous system cancers” (CELGENE CORPORATION, priority 2013, dated 2017)
